# Where a name gives a salt, the structure may show the parent alone.
# Legend:
# [1] = target: purified human Factor XIa (Homo sapiens (Human), UniProt P03951); assay: biochemical; type: biochemical; conditions: read-out: Factor XIa Ki
# [2] = target: purified human plasma kallikrein (Homo sapiens (Human), UniProt P03952); assay: biochemical; type: biochemical; conditions: read-out: Plasma Kallikrein Ki
# Sequence of purified human plasma kallikrein (P03952 whole entry, looked up): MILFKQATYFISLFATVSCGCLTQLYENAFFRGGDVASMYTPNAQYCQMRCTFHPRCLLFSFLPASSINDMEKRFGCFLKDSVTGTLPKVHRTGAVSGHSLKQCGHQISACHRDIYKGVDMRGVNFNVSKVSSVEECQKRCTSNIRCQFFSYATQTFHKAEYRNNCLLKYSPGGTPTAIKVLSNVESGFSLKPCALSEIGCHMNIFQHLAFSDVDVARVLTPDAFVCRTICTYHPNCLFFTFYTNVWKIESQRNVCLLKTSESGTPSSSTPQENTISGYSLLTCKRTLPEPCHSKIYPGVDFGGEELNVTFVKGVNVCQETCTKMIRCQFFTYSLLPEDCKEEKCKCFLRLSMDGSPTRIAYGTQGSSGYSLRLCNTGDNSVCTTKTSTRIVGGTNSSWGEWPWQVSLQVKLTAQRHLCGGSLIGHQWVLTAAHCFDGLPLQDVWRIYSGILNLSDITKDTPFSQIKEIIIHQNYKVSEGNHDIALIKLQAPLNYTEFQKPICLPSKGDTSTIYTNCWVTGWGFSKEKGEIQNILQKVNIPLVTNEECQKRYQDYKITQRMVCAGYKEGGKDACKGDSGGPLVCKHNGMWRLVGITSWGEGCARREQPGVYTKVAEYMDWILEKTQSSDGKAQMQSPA
# Sequence of purified human plasma kallikrein (P03952 whole entry partner, looked up): as the sequence (P03952 whole entry, looked up) above
# Sequence of purified human Factor XIa (P03951 whole entry, looked up): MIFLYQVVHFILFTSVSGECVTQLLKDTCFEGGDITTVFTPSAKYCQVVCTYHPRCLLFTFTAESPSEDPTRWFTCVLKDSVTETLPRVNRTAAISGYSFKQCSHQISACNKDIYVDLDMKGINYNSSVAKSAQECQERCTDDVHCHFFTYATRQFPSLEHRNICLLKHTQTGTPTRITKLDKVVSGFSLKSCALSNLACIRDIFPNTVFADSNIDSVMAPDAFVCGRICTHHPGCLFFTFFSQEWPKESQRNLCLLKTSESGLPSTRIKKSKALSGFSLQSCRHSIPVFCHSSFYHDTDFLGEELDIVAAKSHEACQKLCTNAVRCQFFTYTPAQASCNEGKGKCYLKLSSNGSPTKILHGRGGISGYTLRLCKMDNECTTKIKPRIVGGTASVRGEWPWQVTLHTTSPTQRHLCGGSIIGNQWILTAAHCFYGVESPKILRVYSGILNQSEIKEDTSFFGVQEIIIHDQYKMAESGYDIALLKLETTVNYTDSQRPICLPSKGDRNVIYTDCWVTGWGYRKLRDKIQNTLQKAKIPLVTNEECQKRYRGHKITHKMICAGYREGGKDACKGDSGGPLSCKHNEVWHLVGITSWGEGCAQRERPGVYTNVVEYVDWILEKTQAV
# Sequence of purified human Factor XIa (P03951 whole entry partner, looked up): as the sequence (P03951 whole entry, looked up) above
SMILES,Ki [1],Ki [2]
"COC(=O)Nc1ccc2c(c1)NC(=O)[C@H](C)CCC[C@H](N1CCC(c3c(C#N)ccc4c(N)n[nH]c34)=CC1=O)c1cc-2cc(OC)n1 [Example 8, Methyl N-[(10R,14S)-14-[4-(3-amino-6-cyano-1H-indazol-7-yl)-6-oxo-1,2,3,6-tetrahydropyridin-1-yl]-17-methoxy-10-methyl-9-oxo-8,16-diazatricyclo[13.3.1.0^2,7]nonadeca-1(18),2,4,6,15(19),16-hexaen-5-yl]carbamate, TFA salt]",> 457 nM,173 nM
"COC(=O)Nc1ccc2c(c1)NC(=O)[C@H](C)CCC[C@H](N1CCC(c3c(C#N)ccc4c(N)noc34)=CC1=O)c1cc-2cc(OC)n1 [Example 9, Methyl N-[(10R,14S)-14-[4-(3-amino-6-cyano-1,2-benzoxazol-7-yl)-6-oxo-1,2,3,6-tetrahydropyridin-1-yl]-17-methoxy-10-methyl-9-oxo-8,16-diazatricyclo[13.3.1.0^2,7]nonadeca-1(18),2,4,6,15(19),16-hexaen-5-yl]carbamate, TFA salt]",33.2 nM,46 nM
"COC(=O)Nc1ccc2c(c1)NC(=O)[C@H](C)CCC[C@H](N1CCC(c3nccc(Cl)c3F)=CC1=O)c1cc-2ccn1 [Example 10, Methyl N-[(10R,14S)-14-[4-(4-chloro-3-fluoropyridin-2-yl)-6-oxo-1,2,3,6-tetrahydropyridin-1-yl]-10-methyl-9-oxo-8,16-diazatricyclo[13.3.1.0^2,7]nonadeca-1(18),2,4,6,15(19),16-hexaen-5-yl]carbamate, TFA salt]",0.92 nM,1 nM
"COC(=O)Nc1ccc2c(c1)NC(=O)[C@H](C)CCC[C@H](n1ncc(-c3c(F)ccc(Cl)c3F)cc1=O)c1cc-2ccn1 [Example 11, Methyl N-[(10R,14S)-14-[4-(3-chloro-2,6-difluorophenyl)-6-oxo-1,6-dihydropyridazin-1-yl]-10-methyl-9-oxo-8,16-diazatricyclo[13.3.1.0^2,7]nonadeca-1(19),2(7),3,5,15,17-hexaen-5-yl]carbamate, TFA salt]",6.77 nM,14 nM
"C[C@@H]1CCC[C@H](N2CCC(c3c(F)ccc(Cl)c3F)=CC2=O)c2cc(ccn2)-c2ccccc2NC1=O [Example 13, (10R,14S)-14-[4-(3-Chloro-2,6-difluorophenyl)-6-oxo-1,2,3,6-tetrahydropyridin-1-yl]-10-methyl-8,16-diazatricyclo[13.3.1.0^2,7]nonadeca-1(19),2,4,6,15,17-hexaen-9-one]",13.7 nM,8 nM
"C[C@@H]1CCC[C@H](N2CCC(c3c(F)ccc(Cl)c3F)=CC2=O)c2cc(ccn2)-c2ccc(Nc3ncccn3)cc2NC1=O [Example 16, (10R,14S)-14-[4-(3-Chloro-2,6-difluorophenyl)-6-oxo-1,2,3,6-tetrahydropyridin-1-yl]-10-methyl-5-[(pyrimidin-2-yl)amino]-8,16-diazatricyclo[13.3.1.0^2,7]nonadeca-1(19),2(7),3,5,15,17-hexaen-9-one, 2 TFA salt]",1.15 nM,1 nM
"COc1ccc2c(c1)NC(=O)[C@H](C)CCC[C@H](N1CCC(c3c(F)ccc(Cl)c3F)=CC1=O)c1cc-2ccn1 [Example 17, (10R,14S)-14-[4-(3-chloro-2,6-difluorophenyl)-6-oxo-1,2,3,6-tetrahydropyridin-1-yl]-5-methoxy-10-methyl-8,16-diazatricyclo[13.3.1.0^2,7]nonadeca-1(19),2,4,6,15,17-hexaen-9-one, TFA salt]",45.3 nM,114 nM
"C[C@@H]1CCC[C@H](N2CCC(c3c(F)ccc(Cl)c3F)=CC2=O)c2cc(ccn2)-c2cc(Cl)c(O)cc2NC1=O [Example 19, (10R,14S)-4-Chloro-14-[4-(3-chloro-2,6-difluorophenyl)-6-oxo-1,2,3,6-tetrahydropyridin-1-yl]-5-hydroxy-10-methyl-8,16-diazatricyclo[13.3.1.0^2,7]nonadeca-1(19),2,4,6,15,17-hexaen-9-one, TFA salt]",15.5 nM,52 nM

# Source: patent US9409908B2 (priority 2012, dated 2016)
